The results in this text go back to patent US20250177408A1, “INHIBITOR OF INTERACTION BETWEEN YAP/TAZ AND TEAD, PREPARATION THEREOF, PHARMACEUTICAL COMPOSITION THEREOF AND USE THEREOF” (ETERN BIOPHARMA (SHANGHAI) CO., LTD., priority 2022, published 2025).

SMILES strings stand for the structures. Where a name gives a salt, the structure may show the parent alone. Read-outs that look alike come from different tables or passages of the source.

Assay [1] addresses YAP-TEAD protein interaction (His-TEAD1 (209-426) protein, Bio-YAP peptide (60-100)) (Homo sapiens, UniProt P28347). In words: YAP-TEAD protein interaction HTRF experiment. The following applies: His-TEAD1 (209-426) 10 nM, Bio-YAP peptide 50 nM, read-out: Activity of each compound in blocking YAP-TEAD protein interaction (grades of IC50 values). It counts as binding. In short, it runs like this:
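His-TEAD1 (209-426) at 10 nM final was preincubated 20 min at RT with compounds (10-point 3-fold dilutions, duplicates, 1% DMSO), then Bio-YAP peptide, 10 min. Anti-His-Eu cryptate/streptavidin-XL665 added for 1 h at RT; HTRF read at ex 320 nm, Em665/Em620 ratio ×10000, IC50 from % inhibition.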
(In general: In TR-FRET formats the signal depends on donor and acceptor labels being close together.)

Assay [2] relates to MSTO-211H cells. Description: Cell proliferation inhibition experiment (CellTiter-Glo). The class given is cell-based. The following applies: 96 hours, read-out: Inhibitory activity of each compound on the proliferation of MSTO-211H cells (grades of IC50 values). In short, it runs like this:
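MSTO-211H cells (1500/well, RPMI1640 + 10% FBS) were plated overnight at 37° C, 5% CO2, then exposed in duplicate to 9 three-fold compound dilutions (DMSO ≤0.5% final) for 96 hours. Viability was read as CellTiter-Glo luminescence after 10 min at room temperature. IC50 was derived from inhibition of the CTG signal.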
(ATP-based viability assays read luminescence as a measure of living cells.)

Sequence of YAP-TEAD protein interaction (His-TEAD1 (209-426) protein, Bio-YAP peptide (60-100)) (P28347 209-426): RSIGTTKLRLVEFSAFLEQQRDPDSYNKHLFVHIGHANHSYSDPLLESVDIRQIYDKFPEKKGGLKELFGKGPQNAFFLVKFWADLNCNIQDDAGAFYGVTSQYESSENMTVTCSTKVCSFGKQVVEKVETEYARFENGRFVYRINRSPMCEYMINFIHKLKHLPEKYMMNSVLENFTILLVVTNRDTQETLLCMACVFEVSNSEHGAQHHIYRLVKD

For the molecule `[2H]C1([2H])CC[C@]([2H])([C@@]2(c3ccccc3)Cc3c(cc(F)c(Cl)c3-c3c(C(N)=O)cc4c(c3F)Oc3c(cnn(C5CC(F)(F)C5)c3=O)O4)O2)N1` (atropisomer, axis not shown) [Compound 154, (S)-8-((S)-5-Chloro-6-fluoro-2-phenyl-2-((S)-pyrrolidin-2-yl-2,5,5-d3)-2,3-dihydrobenzofuran-4-yl)-2-(3,3-difluorocyclobutyl)-9-fluoro-1-oxo-1,2-dihydrobenzo[5,6][1,4]dioxo [2,3-d]pyridazine-7-carboxamide], the IC50 was < 50 nM in assay [1] and < 200 nM in assay [2] (Homo sapiens).
For `[2H]C1([2H])CC[C@]([2H])([C@@]2(c3ccccc3)Cc3c(cc(F)c(Cl)c3-c3c(C(=O)NC)cc4c(c3F)Oc3c(cnn(CC(F)(F)F)c3=O)O4)O2)N1` (atropisomer, axis not shown) [Compound 157, (S)-8-((S)-5-Chloro-6-fluoro-2-phenyl-2-((S)-pyrrolidin-2-yl-2,5,5-d3)-2,3-dihydrobenzofuran-4-yl)-9-fluoro-N-methyl-1-oxo-2-(2,2,2-trifluoroethyl)-1,2-dihydroxybenzo[5,6][1,4] dioxo[2,3-d]pyridazine-7-carboxamide], the IC50 was < 50 nM in assay [1] and < 200 nM in assay [2] (Homo sapiens).
In the case of `Cn1nc2c(cc1=O)Oc1c(cc(C(N)=O)c(-c3c(Cl)c(F)cc4c3C[C@](c3ccccc3)([C@@H]3CCCN3)O4)c1F)O2` (atropisomer, axis not shown) [Compound 123, (S)-7-((S)-5-Chloro-6-fluoro-2-phenyl-2-((S)-pyrrolidin-2-yl)-2,3-dihydrobenzofuran-4-yl)-6-fluoro-1-methyl-3-oxo-2,3-trihydrobenzo [5,6][1,4]dioxo [2,3-c]pyridazine-8-carboxamide], the IC50 was < 50 nM in assay [1] and 200 to 500 nM in assay [2] (Homo sapiens).
As for `CNC(=O)c1cc2c(c(F)c1-c1c(Cl)c(F)cc3c1C[C@](c1ccccc1)([C@@H]1CCCN1)O3)Oc1c(cnn(CC(F)F)c1=O)O2` (atropisomer, axis not shown) [Compound 141, (S)-8-((S)-5-Chloro-6-fluoro-2-phenyl-2-((S)-pyrrolidin-2-yl)-2,3-dihydrobenzofuran-4-yl)-2-(2,2-difluoroethyl)-9-fluoro-N-methyl-1-oxo-1,2-dihydrobenzo[5,6][1,4]dioxo[2,3-d]pyridazine-7-carboxamide], the IC50 was < 50 nM in assay [1] and < 200 nM in assay [2] (Homo sapiens).
`NC(=O)c1cc2c(c(F)c1-c1c(Cl)c(F)cc3c1C[C@](c1ccccc1)([C@@H]1CCCN1)O3)OCC21CCNCC1` (atropisomer, axis not shown) [Compound 44, (S)-6-((S)-5-Chloro-6-fluoro-2-phenyl-2-((S)-pyrrolidin-2-yl)-2,3-dihydrobenzofuran-4-yl)-7-fluoro-2H-spiro [benzofuran-3,4′-piperidine]-5-carboxamide]: the IC50 in assay [1] was 50 to 500 nM; in assay [2] (Homo sapiens), > 5000 nM.
For the molecule `NC(=O)c1cc2c(c(F)c1-c1c(Cl)c(F)cc3c1C[C@](c1ccccc1)([C@@H]1CCCN1)O3)Oc1c(cnn(CC(F)F)c1=O)O2` (atropisomer, axis not shown) [Compound 120, (S)-8-((S)-5-Chloro-6-fluoro-2-phenyl-2-((S)-pyrrolidin-2-yl)-2,3-dihydrobenzofuran-4-yl)-9-fluoro-2-(2,2-difluoroethyl)-1-oxo-1,2-dihydrobenzo[5,6][1,4]dioxo[2,3-d]pyridazine-7-carboxamide], the IC50 in assay [1] was < 50 nM; in assay [2] (Homo sapiens), < 200 nM.
Consider `[2H]C([2H])([2H])n1ncc2c(c1=O)Oc1c(cc(C(=O)NC)c(-c3c(Cl)c(F)cc4c3C[C@](c3ccccc3)([C@@H]3CCCN3)O4)c1F)O2` (atropisomer, axis not shown) [Compound 151, (S)-8-((S)-5-Chloro-6-fluoro-2-phenyl-2-((S)-pyrrolidin-2-yl)-2,3-dihydrobenzofuran-4-yl)-9-fluoro-N-methyl-2-(methyl-d3)-1-oxo-1,2-dihydrobenzo[5,6][1,4]dioxo [2,3-d]pyridazine-7-carboxamide], for which the IC50 was < 50 nM in assay [1] and < 200 nM in assay [2] (Homo sapiens).
As for `NC(=O)c1cc2c(c(F)c1-c1c(Cl)c(F)cc3c1C[C@](c1ccccc1)([C@@H]1CCCN1)O3)Oc1ncn(C3CC3)c(=O)c1O2` (atropisomer, axis not shown) [Compound 140], the IC50 in assay [1] is < 50 nM; in assay [2] (Homo sapiens), < 200 nM.
For `CNC(=O)c1cc2c(c(F)c1-c1c(Cl)c(F)cc3c1C[C@](c1ccccc1)([C@@H]1CCCN1)O3)Oc1c(cnn(CCC(F)(F)F)c1=O)O2` (atropisomer, axis not shown) [Compound 142, (R)-8-((S)-5-Chloro-6-fluoro-2-phenyl-2-((S)-pyrrolidin-2-yl)-2,3-dihydrobenzofuran-4-yl)-9-fluoro-N-methyl-1-oxo-2-(3,3,3-trifluoropropyl)-1,2-dihydrobenzo[5,6][1,4]dioxa[2,3-d]pyridazine-7-carboxamide], in that order: < 50 nM and < 200 nM.
Regarding `CCn1cc2c(n1)COc1c-2cc(C(N)=O)c(-c2c(Cl)c(F)cc3c2C[C@](c2ccccc2)([C@@H]2CCCN2)O3)c1F` (atropisomer, axis not shown) [Compound 62, (S)-7-((S)-5-Chloro-6-fluoro-2-phenyl-2-((S)-pyrrolidin-2-yl)-2,3-dihydrobenzofuran-4-yl)-2-ethyl-6-fluoro-2,4-dihydrochromeno[3,4-c]pyrazole-8-carboxamide], the IC50 is < 50 nM in assay [1] and < 200 nM in assay [2] (Homo sapiens).
Regarding `NC(=O)c1cc2c(c(F)c1-c1c(Cl)c(F)cc3c1C[C@](c1ccccc1)([C@@H]1CCCN1)O3)Oc1cc(=O)n(C3CC3)nc1O2` (atropisomer, axis not shown) [Compound 129, (S)-8-((S)-5-Chloro-6-fluoro-2-phenyl-2-((S)-pyrrolidin-2-yl)-2,3-dihydrobenzofuran-4-yl)-2-cyclopropyl-9-fluoro-3-oxo-2,3-hydrobenzo[5,6][1,4]dioxo [2,3-c]pyridazine-7-carboxamide], the values for the IC50 in assay [1] and in assay [2] (Homo sapiens) were < 50 nM and 200 to 500 nM, respectively.
For the molecule `NC(=O)c1cc2c(c(F)c1-c1c(Cl)c(F)cc3c1C[C@](c1ccccc1)([C@@H]1CCCN1)O3)Oc1c(cnn(C3CC3)c1=O)O2` [Compound 111, (S)-8-((S)-5-Chloro-6-fluoro-2-phenyl-2-((S)-pyrrolidin-2-yl)-2,3-dihydrobenzofuran-4-yl)-2-cyclopropyl-9-fluoro-1-oxo-1,2-dihydrobenzo[5,6][1,4]dioxo[2,3-d]pyridazine-7-carboxamide], the IC50 in assay [1] was < 50 nM; in assay [2], < 200 nM.
As for `[2H]C([2H])([2H])n1ncc2c(c1=O)Oc1c(cc(C(N)=O)c(-c3c(Cl)c(F)cc4c3C[C@](c3ccccc3)([C@@H]3CCCN3)O4)c1F)O2` (atropisomer, axis not shown) [Compound 131, (S)-8-((S)-5-Chloro-6-fluoro-2-phenyl-2-((S)-pyrrolidin-2-yl)-2,3-dihydrobenzofuran-4-yl)-9-fluoro-2-(methyl-d3)-1-oxo-1,2-dihydrobenzo[5,6][1,4]dioxo[2,3-d]pyridazine-7-carboxamide], the IC50 in assay [1] is < 50 nM; in assay [2] (Homo sapiens) it was < 200 nM.
Regarding `NC(=O)c1cc2c(c(F)c1-c1c(Cl)c(F)cc3c1C[C@](c1ccccc1)([C@@H]1CCCN1)O3)Oc1c(cnn(CCF)c1=O)O2` (atropisomer, axis not shown) [Compound 118, (S)-8-((S)-5-Chloro-6-fluoro-2-phenyl-2-((S)-pyrrolidin-2-yl)-2,3-dihydrobenzofuran-4-yl)-9-fluoro-2-(2-fluoroethyl)-1-oxo-1,2-dihydrobenzo[5,6][1,4]dioxo[2,3-d]pyridazine-7-carboxamide], the figures for the IC50 in assay [1] and in assay [2] (Homo sapiens) were < 50 nM and < 200 nM, respectively.
For `CO[C@H]1C[C@H](CNC[C@@]2(c3ccccc3)Cc3c(cc(F)c(Cl)c3-c3c(C(N)=O)cc4c(c3F)OCc3nn(C)cc3-4)O2)C1` (atropisomer, axis not shown) [Compound 84, (S)-7-((S)-5-Chloro-6-fluoro-2-(((((1r,3S)-3-methoxycyclobutyl)methyl)amino)methyl)-2-phenyl-2,3-dihydrobenzofuran-4-yl)-6-fluoro-2-methyl-2,4-dihydrochromeno[3,4-c]pyrazole-8-carboxamide formate], in that order: < 50 nM and 200 to 500 nM.
On the same counts, the results for `Cn1ncc2c(F)c(-c3c(Cl)c(F)cc4c3C[C@](c3ccccc3)([C@@H]3CCCN3)O4)c(C(N)=O)cc21` (atropisomer, axis not shown) [Compound I-28, (S)-5-((S)-5-Chloro-6-fluoro-2-phenyl-2-((S)-pyrrolidin-2-yl)-2,3-dihydrobenzofuran-4-yl)-4-fluoro-1-methyl-1H-indazole-6-carboxamide] are < 50 nM and < 200 nM.
As to `CNC(=O)c1cc2c(c(F)c1-c1c(Cl)c(F)cc3c1C[C@](c1ccccc1)([C@@H]1CCCN1)O3)Oc1c(cnn(CCOC)c1=O)O2` (atropisomer, axis not shown) [Compound 150, (S)-8-((S)-5-Chloro-6-fluoro-2-phenyl-2-((S)-pyrrolidin-2-yl)-2,3-dihydrobenzofuran-4-yl)-9-fluoro-2-(2-methoxyethyl)-N-methyl-1-oxo-1,2-dihydrobenzo [5,6][1,4]dioxo [2,3-d]pyridazine-7-carboxamide], the IC50 in assay [1] is < 50 nM; in assay [2] (Homo sapiens) it was < 200 nM.
